Results reported in ChEMBL document CHEMBL1157738, “Simocyclinone D8 turns on against Gram-negative bacteria in a clinical setting” (2010).
Values after ≈ are worked out from the molar mass of the structure shown.

What was measured:
Format in all cases: functional
Escherichia coli [1] = assay: Antibacterial activity against Escherichia coli isolate 85 expressing GyrA S83L mutant after 24 hrs by twofold serial dilution method; details: isolate 85, 24 h
Escherichia coli [2] = assay: Antibacterial activity against Escherichia coli isolate 95 expressing GyrA S83L mutant after 24 hrs by twofold serial dilution method; details: isolate 95, 24 h
Klebsiella pneumoniae [3] = assay: Antibacterial activity against Klebsiella pneumoniae isolate 91 after 24 hrs by twofold serial dilution method; details: Klebsiella pneumoniae, isolate 91, 24 h
Klebsiella pneumoniae [4] = assay: Antibacterial activity against Klebsiella pneumoniae isolate 370 expressing qnr B19 gene, GyrA D87G mutant after 24 hrs by twofold serial dilution method; details: isolate 370, 24 h
Escherichia coli [5] = assay: Antibacterial activity against Escherichia coli isolate 115 expressing GyrA S83L mutant after 24 hrs by twofold serial dilution method; details: isolate 115, 24 h
Klebsiella pneumoniae [6] = assay: Antibacterial activity against Klebsiella pneumoniae isolate 92 after 24 hrs by twofold serial dilution method; details: Klebsiella pneumoniae, isolate 92, 24 h
Escherichia coli [7] = assay: Antibacterial activity against Escherichia coli isolate 50 expressing qnr B19 gene after 24 hrs by twofold serial dilution method; details: Escherichia coli, isolate 50, 24 h
Escherichia coli [8] = assay: Antibacterial activity against Escherichia coli isolate 41 after 24 hrs by twofold serial dilution method; details: Escherichia coli, isolate 41, 24 h
Escherichia coli [9] = assay: Antibacterial activity against Escherichia coli HB101 after 24 hrs by twofold serial dilution method; details: Escherichia coli, HB101, 24 h
Escherichia coli [10] = assay: Antibacterial activity against Escherichia coli JM110 after 24 hrs by twofold serial dilution method; details: Escherichia coli, JM110, 24 h
Escherichia coli [11] = assay: Antibacterial activity against Escherichia coli isolate 7 after 24 hrs by twofold serial dilution method; details: Escherichia coli, isolate 7, 24 h
Klebsiella pneumoniae [12] = assay: Antibacterial activity against Klebsiella pneumoniae isolate 16 expressing qnr B19 gene, GyrA D87G mutant after 24 hrs by twofold serial dilution method; details: isolate 16, 24 h
Escherichia coli [13] = assay: Antibacterial activity against Escherichia coli isolate 47 expressing qnr B19 gene after 24 hrs by twofold serial dilution method; details: Escherichia coli, isolate 47, 24 h
Escherichia coli [14] = assay: Antibacterial activity against Escherichia coli isolate 191 expressing qnr S1 gene after 24 hrs by twofold serial dilution method; details: Escherichia coli, isolate 191, 24 h
Klebsiella pneumoniae [15] = assay: Antibacterial activity against Klebsiella pneumoniae isolate 172 expressing qnr B19 gene, GyrA D87G mutant after 24 hrs by twofold serial dilution method; details: isolate 172, 24 h
Escherichia coli [16] = assay: Antibacterial activity against Escherichia coli isolate 13 after 24 hrs by twofold serial dilution method; details: Escherichia coli, isolate 13, 24 h
Escherichia coli [17] = assay: Antibacterial activity against Escherichia coli Top10 after 24 hrs by twofold serial dilution method; details: Escherichia coli, Top10, 24 h
Escherichia coli [18] = assay: Antibacterial activity against Escherichia coli isolate 21 after 24 hrs by twofold serial dilution method; details: Escherichia coli, isolate 21, 24 h
Escherichia coli [19] = assay: Antibacterial activity against Escherichia coli JM109 after 24 hrs by twofold serial dilution method; details: Escherichia coli, JM109, 24 h
Staphylococcus aureus = assay: Antibacterial activity against Staphylococcus aureus after 24 hrs by twofold serial dilution method; details: Staphylococcus aureus, 24 h
Escherichia coli [20] = assay: Antibacterial activity against Escherichia coli XL-1Blue after 24 hrs by twofold serial dilution method; details: Escherichia coli, XL-1Blue, 24 h
Klebsiella pneumoniae [21] = assay: Antibacterial activity against Klebsiella pneumoniae isolate 110 expressing qnr B19 gene, GyrA D87G mutant after 24 hrs by twofold serial dilution method; details: isolate 110, 24 h
Escherichia coli [22] = assay: Antibacterial activity against Escherichia coli isolate 24 after 24 hrs by twofold serial dilution method; details: Escherichia coli, isolate 24, 24 h
Klebsiella pneumoniae [23] = assay: Antibacterial activity against Klebsiella pneumoniae isolate 5 expressing qnr B19 gene, GyrA D87G mutant after 24 hrs by twofold serial dilution method; details: isolate 5, 24 h
Escherichia coli [24] = assay: Antibacterial activity against Escherichia coli isolate 9 expressing qnr B19 gene, GyrA D87G, ParC S80I mutant after 24 hrs by twofold serial dilution method; details: isolate 9, 24 h
Klebsiella pneumoniae [25] = assay: Antibacterial activity against Klebsiella pneumoniae isolate 97 expressing qnr B19 gene after 24 hrs by twofold serial dilution method; details: Klebsiella pneumoniae, isolate 97, 24 h
Klebsiella pneumoniae [26] = assay: Antibacterial activity against Klebsiella pneumoniae isolate 328 expressing qnr B19 gene, GyrA D87G mutant after 24 hrs by twofold serial dilution method; details: isolate 328, 24 h
Klebsiella pneumoniae [27] = assay: Antibacterial activity against Klebsiella pneumoniae isolate 134 after 24 hrs by twofold serial dilution method; details: Klebsiella pneumoniae, isolate 134, 24 h
Klebsiella pneumoniae [28] = assay: Antibacterial activity against Klebsiella pneumoniae isolate 173 after 24 hrs by twofold serial dilution method; details: Klebsiella pneumoniae, isolate 173, 24 h
Klebsiella pneumoniae [29] = assay: Antibacterial activity against Klebsiella pneumoniae isolate 204 expressing qnr B19 gene after 24 hrs by twofold serial dilution method; details: Klebsiella pneumoniae, isolate 204, 24 h

O=C(O)c1cn(C2CC2)c2cc(N3CCNCC3)c(F)cc2c1=O [CIPROFLOXACIN]
MIC90 (Escherichia coli [1]): 0.5 µg/mL (≈ 1.51 µM)
MIC90 (Escherichia coli [2]): 1 µg/mL (≈ 3.02 µM)
MIC90 (Klebsiella pneumoniae [3]): > 4 µg/mL
MIC90 (Klebsiella pneumoniae [4]): > 4 µg/mL
MIC90 (Escherichia coli [5]): 0.5 µg/mL (≈ 1.51 µM)
MIC90 (Klebsiella pneumoniae [6]): < 0.25 µg/mL
MIC90 (Escherichia coli [7]): < 0.25 µg/mL
MIC90 (Escherichia coli [8]): < 0.25 µg/mL
MIC90 (Escherichia coli [9]): < 0.25 µg/mL
MIC90 (Escherichia coli [10]): > 4 µg/mL
MIC90 (Escherichia coli [11]): > 4 µg/mL
MIC90 (Klebsiella pneumoniae [12]): 2 µg/mL (≈ 6.04 µM)
MIC90 (Escherichia coli [13]): < 0.25 µg/mL
MIC90 (Escherichia coli [14]): 1 µg/mL (≈ 3.02 µM)
MIC90 (Klebsiella pneumoniae [15]): < 0.25 µg/mL
MIC90 (Escherichia coli [16]): > 4 µg/mL
MIC90 (Escherichia coli [17]): < 0.25 µg/mL
MIC90 (Escherichia coli [18]): 4 µg/mL (≈ 12.1 µM)
MIC90 (Escherichia coli [19]): > 4 µg/mL
MIC90 (Staphylococcus aureus): > 4 µg/mL
MIC90 (Escherichia coli [20]): > 4 µg/mL
MIC90 (Klebsiella pneumoniae [21]): < 0.25 µg/mL
MIC90 (Escherichia coli [22]): < 0.25 µg/mL
MIC90 (Klebsiella pneumoniae [23]): < 0.25 µg/mL
MIC90 (Escherichia coli [24]): > 4 µg/mL
MIC90 (Klebsiella pneumoniae [25]): < 0.25 µg/mL
MIC90 (Klebsiella pneumoniae [26]): > 4 µg/mL
MIC90 (Klebsiella pneumoniae [27]): < 0.25 µg/mL
MIC90 (Klebsiella pneumoniae [28]): > 4 µg/mL
MIC90 (Klebsiella pneumoniae [29]): 0.75 µg/mL (≈ 2.26 µM)
